# Data: article PMC8654833 (Scientific Reports, 2021)
# Where “and” joins values, the source holds several entries; their conditions need not be identical. Equal values may be shown once.
# How the values were obtained:
# [1] = target: Ca^2+ channel, ds; experiment: Radioligand binding competition dose-response (Euroscreen), Ca2+ channel diltiazem site
# Experimental: (§1) This study included binding assays (87 GPCR targets), measured as % of binding inhibition of a reference radioligand, as well as uptake and enzyme assays (19 targets), the latter measured as % inhibition of control enzyme activity. […] It was performed by radioligand binding competition by Euroscreen (Euroscreen FAST, Belgium). The following nanomolar concentrations were tested in duplicate: 0.001, 0.01, 0.1, 1, 10, 100, 1000, 10,000. Dose–response curves were fitted with the least squares method. IC50 results are shown as pIC50, corresponding to the negative log10 of IC50 in molar.
# [2] = target: T1, 5-HT1A (Homo sapiens, UniProt P08908); experiment: Radioligand binding competition dose-response (Euroscreen), 5-HT1A
# T1 construct: Euroscreen FAST (contract assay)
# T1 sequence (P08908 1-422): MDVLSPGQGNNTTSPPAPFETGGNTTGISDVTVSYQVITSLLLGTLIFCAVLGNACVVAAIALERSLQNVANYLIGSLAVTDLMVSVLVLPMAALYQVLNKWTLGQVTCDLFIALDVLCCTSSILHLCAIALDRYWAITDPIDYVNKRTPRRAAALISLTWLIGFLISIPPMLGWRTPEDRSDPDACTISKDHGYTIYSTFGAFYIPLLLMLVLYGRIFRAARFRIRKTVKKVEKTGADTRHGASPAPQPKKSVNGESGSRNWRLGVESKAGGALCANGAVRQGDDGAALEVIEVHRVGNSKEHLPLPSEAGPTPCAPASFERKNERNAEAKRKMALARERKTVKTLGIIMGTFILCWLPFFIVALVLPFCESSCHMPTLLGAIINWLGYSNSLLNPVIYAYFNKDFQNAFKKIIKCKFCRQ
# Experimental: as §1
# [3] = target: T2, 5-HT7 (Homo sapiens, UniProt P34969); experiment: Single-concentration radioligand binding screen (Eurofins Cerep), 5-HT7; conditions: single concentration 10 µM screen, [3H]LSD
# T2 construct: Euroscreen FAST (contract assay)
# Experimental: as §1
# [4] = target: T3, NET (Homo sapiens, UniProt P23975); experiment: Single-concentration radioligand binding screen (Eurofins Cerep), norepinephrine transporter; conditions: single concentration 10 µM screen, 3H]nisoxetine
# T3 construct: Euroscreen FAST (contract assay)
# Experimental: as §1
# [5] = target: T4, DAT (Homo sapiens, UniProt Q01959); experiment: Single-concentration radioligand binding screen (Eurofins Cerep), dopamine transporter; conditions: single concentration 10 µM screen, [3H]BTCP
# T4 construct: Euroscreen FAST (contract assay)
# Experimental: as §1
# [6] = target: T5, 5-HT1B (Rattus norvegicus, UniProt P28564); experiment: Single-concentration radioligand binding screen (Eurofins Cerep), 5-HT1B; conditions: read-out: %Binding inhibition at 10 µM
# T5 construct: Eurofins Cerep (contract assay)
# Experimental: as §1
# [7] = Plasma and brain distribution after single IP injection; conditions: CD-1, mouse, 10 mg/kg
# T3 sequence (P23975 whole entry): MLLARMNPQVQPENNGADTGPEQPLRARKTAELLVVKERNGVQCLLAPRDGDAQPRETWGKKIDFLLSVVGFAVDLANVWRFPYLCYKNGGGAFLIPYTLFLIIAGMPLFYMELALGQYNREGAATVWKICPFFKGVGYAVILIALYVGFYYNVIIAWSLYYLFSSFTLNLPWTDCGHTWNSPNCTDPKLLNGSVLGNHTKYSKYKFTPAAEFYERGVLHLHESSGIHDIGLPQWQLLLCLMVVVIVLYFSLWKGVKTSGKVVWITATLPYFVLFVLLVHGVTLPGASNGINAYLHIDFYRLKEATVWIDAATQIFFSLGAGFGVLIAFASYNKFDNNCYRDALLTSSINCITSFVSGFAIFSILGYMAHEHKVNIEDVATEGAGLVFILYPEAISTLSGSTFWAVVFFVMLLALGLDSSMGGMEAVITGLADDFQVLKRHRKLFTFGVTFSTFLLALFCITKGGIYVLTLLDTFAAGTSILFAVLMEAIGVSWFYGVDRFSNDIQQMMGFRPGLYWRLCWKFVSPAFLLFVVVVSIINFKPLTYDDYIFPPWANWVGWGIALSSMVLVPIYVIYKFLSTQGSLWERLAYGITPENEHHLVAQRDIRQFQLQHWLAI
# T5 sequence (P28564 whole entry): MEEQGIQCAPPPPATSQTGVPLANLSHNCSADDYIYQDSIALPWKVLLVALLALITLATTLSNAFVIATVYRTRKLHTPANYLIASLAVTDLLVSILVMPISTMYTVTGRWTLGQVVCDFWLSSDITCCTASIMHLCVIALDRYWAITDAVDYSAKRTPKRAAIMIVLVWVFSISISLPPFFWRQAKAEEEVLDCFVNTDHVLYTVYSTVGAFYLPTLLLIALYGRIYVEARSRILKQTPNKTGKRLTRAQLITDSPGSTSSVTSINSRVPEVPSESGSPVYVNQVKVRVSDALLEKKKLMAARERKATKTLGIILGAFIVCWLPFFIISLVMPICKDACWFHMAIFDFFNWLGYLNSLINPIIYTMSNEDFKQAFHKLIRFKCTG
# T2 sequence (P34969 whole entry, species assumed): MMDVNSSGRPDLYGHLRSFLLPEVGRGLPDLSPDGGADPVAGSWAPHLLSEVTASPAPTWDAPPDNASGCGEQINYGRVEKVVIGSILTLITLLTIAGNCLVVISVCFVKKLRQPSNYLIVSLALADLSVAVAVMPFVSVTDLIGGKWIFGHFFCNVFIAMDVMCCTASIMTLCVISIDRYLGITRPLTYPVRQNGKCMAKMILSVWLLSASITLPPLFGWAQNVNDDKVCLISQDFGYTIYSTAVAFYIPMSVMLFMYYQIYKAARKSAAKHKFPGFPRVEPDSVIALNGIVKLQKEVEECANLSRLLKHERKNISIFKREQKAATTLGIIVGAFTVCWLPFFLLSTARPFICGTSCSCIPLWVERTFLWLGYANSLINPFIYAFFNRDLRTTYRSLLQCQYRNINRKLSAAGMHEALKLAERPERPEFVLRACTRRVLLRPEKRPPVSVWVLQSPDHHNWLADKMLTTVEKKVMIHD
# T4 sequence (Q01959 whole entry, species assumed): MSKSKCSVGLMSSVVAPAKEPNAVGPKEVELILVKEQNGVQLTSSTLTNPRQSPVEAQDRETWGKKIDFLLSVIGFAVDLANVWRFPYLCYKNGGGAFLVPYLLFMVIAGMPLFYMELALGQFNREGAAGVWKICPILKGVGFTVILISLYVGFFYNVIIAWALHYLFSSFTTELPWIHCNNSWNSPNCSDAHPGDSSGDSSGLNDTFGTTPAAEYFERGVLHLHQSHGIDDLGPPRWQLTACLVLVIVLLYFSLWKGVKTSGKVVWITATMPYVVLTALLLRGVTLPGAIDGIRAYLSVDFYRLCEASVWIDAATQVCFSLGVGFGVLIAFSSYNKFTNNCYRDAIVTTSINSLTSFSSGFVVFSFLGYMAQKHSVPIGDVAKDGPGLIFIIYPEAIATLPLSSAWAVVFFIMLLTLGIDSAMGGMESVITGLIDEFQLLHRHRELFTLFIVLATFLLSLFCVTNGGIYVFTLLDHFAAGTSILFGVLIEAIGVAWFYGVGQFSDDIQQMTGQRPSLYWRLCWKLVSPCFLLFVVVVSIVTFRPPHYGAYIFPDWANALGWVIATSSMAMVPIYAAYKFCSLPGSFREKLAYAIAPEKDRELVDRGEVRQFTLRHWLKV
smiles,measurement,setting,value
"CC(N)Cc1c[nH]c2ccc(OCc3cccs3)cc12 (stereo not shown) [BW, 1-[5-(thiophen-2-ylmethoxy)-1H-indol-3-yl]propan-2-amine]",pIC50,[1]; [3H]diltiazem competition,6.11
same,%Binding inhibition at 10 µM,"[1]; dose-response study, maximal concentration 10 µM, [3H]diltiazem",35.80%
same,IC50,[2],589 nM
same,inhibition at 10 µM,"[2]; dose-response study, maximal concentration 10 µM, [3H]8-OH-DPAT",95%
same,%Binding inhibition at 10 µM,"[2]; dose-response study, maximal concentration 10 µM, [3H]8-OH-DPAT, 10 µM",95.26%
same,inhibition at 10 µM,[3],89.5%
same,inhibition at 10 µM,[4],68.7%
same,inhibition at 10 µM,[5],81.9%
same,inhibition at 10 µM,[6],92%
same,Tmax,[7]; in vivo,~30 min
same,concentration at 4 h,[7]; in vivo,860 ng/g
same,concentration at 8 h,[7]; in vivo,14.4 ng/mL and 417 ng/g
same,half-life,[7]; plasma,66 min
